The target of experiment [1] is T1, Dictyostelium NDP Kinase N119S (Dictyostelium discoideum, UniProt P22887, N119S).
T1 construct: made in house
As to the kind of experiment: Pre-steady-state fluorescence stopped-flow phosphotransfer from nucleoside triphosphates, N119S Dd-NDPK. Type of experiment: biochemical. Particulars: for times faster reaction with the N119S enzyme than wild type: from Table I; for k2/Ks N119S (catalytic efficiency of phosphotransfer): pre-steady state, stopped-flow, average of three determinations. As for the experimental part: (§1) All numbers in italics have already been published (Schneider, 1998, 2000) The kinetic constants were measured at the pre-steady-state level using a fluorescence stopped-flow device. The binding constants were determined at equilibrium by recording the increase in fluorescence (Schneider, 2000). Values are the average of three independent determinations.
(§2) As the diphosphate form of analogs were not always available, the triphosphate analogs were used to study phosphate transfer in reaction as in Scheme I. Experiments were performed with an Hi-Tech DX2 microvolume stopped-flow reaction (Schneider, 1998) at Aexc=296 nm (for Ado derivatives) or […] (for other nucleotides), 2 mm excitation slit and a 320 nm cutoff filter at the emission. After mixing NDPK (1 μM) and NTP or an analogTP (10-500 μM), the intrinsic protein fluorescence was recorded for 10-200 sec. In each experiment, 400 pairs of data were recorded, and the data from 3-4 identical experiments were averaged and fitted to a number of non-linear analytical equations using the software provided by Hi-Tech. All curves fitted to single exponentials.
(§3) The data were analyzed using the reaction scheme: [drawing 1]
(§4) In both the forward and the reverse reactions, the product concentration remains very low, thus the product binding can be neglected, and the observed single step could be attributed to the phosphotransfer (Schneider, 1998). The rate of this observed single step is: [formula]
and reaches a limiting value (k+2) at NTP saturation. Saturation could not be obtained with the concentrations of any NTP used here. Therefore, catalytic efficiencies of phosphorylation (CEphos=k+2/(k−1/k+1)=k+2/KS) were measured, which are equivalent to second order constants and allow a reliable comparison of a variety of NDP kinase substrates.

Experiment [2] concerns the target T2, Inactive-N119S Dd-NDPK (EI-N119S) (Dictyostelium discoideum, UniProt P22887, F64W/H122G/N119S).
T2 construct: made in house
Nature of the experiment: Equilibrium fluorescence titration of nucleotide binding, inactive Dd-NDPK variant with N119S. Particulars: relative affinity of NTP for both enzymes. As for the experimental part: as §1
In contrast to what is observed with natural nucleotides, the Ser mutation specifically improves the catalytic efficiency with nucleotides analogs as shown in Table I; ddGTPs and AZT-TP react, respectively, 1.5 and 4 times faster with the N119S enzyme. […] Analog binding affinity was measured using a variant of Dd-NDPK (EI) as described (Schneider, 2000). This mutant (H122G-F64W) lacks the catalytic histidine, and a tryptophan replaces the phenylalanine stacking on the base in the active site (Schneider, 2000). The mutation N119S was inserted in EI in order to measure the nucleotide affinity by fluorescence titration. The Ser contribution to the binding was evaluated from the relative affinity of NTP for both enzymes (Table I).
for N119S, N119T and N119Y mutations, respectively. Altered bases as compared to the wild type sequence are underlined in bold. Sequences were checked by automatic sequencing. The mutant EI-N119S was obtained by mutation of the previously described F64W-H122G mutated NDP kinase (here called EI) (Schneider 2000).

For experiment [3], the target named is T3, human NDP kinase A (NDPK-A) variant N115S, SEQ ID NO: 2 (Homo sapiens, UniProt P15531, N115S).
T3 construct: made in house; host or cells: E. coli
As to the kind of experiment: Pre-steady-state phosphotransfer, fluorescence stopped-flow. Type of experiment: biochemical. To be noted: for k2/Ks: catalytic efficiency of phosphotransfer, N115S, pre-steady state; for Specificity change (R): ratio of catalytic efficiencies analog vs natural nucleotide, mutant vs wild type.

The target of experiment [4] is T4, human NDP kinase A (NDPK-A) variant L55H-N115S, SEQ ID NO: 3 (Homo sapiens, UniProt P15531, L55H/N115S).
T4 construct: made in house; host or cells: E. coli
The description is as above. The format is biochemical. Particulars: for k2/Ks: catalytic efficiency of phosphotransfer, L55H-N115S, pre-steady state; for Specificity change (R): ratio of catalytic efficiencies analog vs natural nucleotide, mutant vs wild type.

Experiment [5] deals with T5, human NDP kinase A (NDPK-A, nm23-H1), wild type (Homo sapiens, UniProt P15531).
T5 construct: made in house
Described as above. The format is biochemical. To be noted: catalytic efficiency of phosphotransfer, NDPK-A, pre-steady state. On the procedure:
FIG. 3 depicts the catalytic efficiency of NDPK-A and mutants for nucleoside analogs. The rates of phosphorylation of pure recombinant NDP kinases (1 μM) were measured at the pre-steady state in a fluorescence stopped-flow with d4T-TP (10 to 80 μM). The catalytic efficiency (expressed in M^−1s^−1) was determined from the variation of the rate as a function of analog as shown in FIG. 2 (▾, NDPK-A, ♦ L55H, ● N115S, ▪ L55H-N115S).
The activity assays were performed at the pre-steady state level.
Wild type human NDPK-A and the mutants were expressed and purified according to Schneider et al., 2000, Mol Pharm. Recombinant wild type and mutant Dd-NDPK were obtained as described (Schneid, 1998a), except for N119Y NDP kinase which was partially purified by Q sepharose FF chromatography. Each protein was characterized by […] electrophoresis. The concentration of 17 kDa subunits of the enzyme was either determined by Bradford assay ([…]) or using an absorbance coefficient of ΔA^280=1.249 for a 1 mg/mL solution of human wild type and N115S NDPK-A, and =0.55 for wild type and mutant N119S, N119T Dd-NDP kinases, respectively.
as §2, with “Hi-Tech.” for “Hi-Tech. All curves fitted to single exponentials.”
as §3, §4
and reaches a limiting value (k+2) at NTP saturation. […] Therefore, catalytic efficiencies of phosphorylation (CEphos=k+2/(k−1/k+1)=k+2/KS) were measured, which are equivalent to second order constants and allow a reliable comparison of a variety of NDP kinase substrates.

T3 sequence (P15531 whole entry N115S): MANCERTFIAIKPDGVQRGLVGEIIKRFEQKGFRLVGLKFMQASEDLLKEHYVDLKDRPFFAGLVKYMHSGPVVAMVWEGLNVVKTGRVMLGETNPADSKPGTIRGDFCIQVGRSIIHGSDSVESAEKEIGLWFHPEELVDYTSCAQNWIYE
T4 sequence (P15531 whole entry L55H/N115S): as the sequence (P15531 whole entry N115S) above, with L55H counted along it
T1 sequence (P22887 whole entry N119S): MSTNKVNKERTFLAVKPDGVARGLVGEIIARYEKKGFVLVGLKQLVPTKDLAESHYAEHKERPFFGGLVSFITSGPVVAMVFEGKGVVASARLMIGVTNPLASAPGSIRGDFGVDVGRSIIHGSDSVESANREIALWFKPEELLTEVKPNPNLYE
T2 sequence (P22887 whole entry F64W/N119S/H122G): as the sequence (P22887 whole entry N119S) above, with F64W, H122G counted along it
T5 sequence (P15531 whole entry): as the sequence (P15531 whole entry N115S) above, with S115N counted along it

Consider `Cc1cn([C@H]2C[C@H](N=[N+]=[N-])[C@@H](COP(=O)(O)OP(=O)(O)OP(=O)(O)O)O2)c(=O)[nH]c1=O` [AZT-TP], for which the “times faster reaction with the N119S enzyme than wild type” value in experiment [1] was determined as 4 times. In experiment [1], the “k2/Ks N119S (catalytic efficiency of phosphotransfer)” value worked out at 1100 M⁻¹ s⁻¹. For the same compound, the “factor by which Ser 119 reinforces affinity (EI-N119S versus EI)” value in experiment [2] came to 15 fold. Moreover, the k2/Ks amounted to 900 M⁻¹ s⁻¹ in experiment [3], 6770 M⁻¹ s⁻¹ in experiment [4] and 75 M⁻¹ s⁻¹ in experiment [5]. In addition, the “Specificity change (R)” value is “(125)” in experiment [3] and “(240)” in experiment [4].
`Nc1nc2c(ncn2[C@H]2CC[C@@H](COP(=O)(O)OP(=O)(O)OP(=O)(O)O)O2)c(=O)[nH]1` [ddGTP, dideoxy-GTP]: in experiment [1], the “times faster reaction with the N119S enzyme than wild type” value came to 1.5 times and the “k2/Ks N119S (catalytic efficiency of phosphotransfer)” value came to 3500 M⁻¹ s⁻¹. Moreover, the “factor by which Ser 119 reinforces affinity (EI-N119S versus EI)” value in experiment [2] is given as 2 fold. Moreover, in experiment [3], the k2/Ks is 750 M⁻¹ s⁻¹ and the “Specificity change (R)” value was “(60)”. In experiment [4], the k2/Ks stood at 4200 M⁻¹ s⁻¹ and the “Specificity change (R)” value was “(160)”. Further, in experiment [5], the k2/Ks was 190 M⁻¹ s⁻¹.
